Measured values published in ChEMBL document CHEMBL6087420, “Synthesis and pharmacodynamic evaluation of 2-aminoindole derivatives against influenza A virus in vitro/vivo” (Eur J Med Chem, 2025).
Activity calls are given as the source filed them. The calls are words filed in the database; no cut-off is given here.

Tests used:
[1] = test system: Influenza A virus; test: Inhibition of influenza A virus infection induced apoptosis in MDCK cells infected with influenza virus assessed as necrotic cells at 50 uM incubated for 36 hrs by AnnexinV-FITC/PI staining based flow cytometry (reference value: 1.79%); type: functional; design: scale not given: the % may be the effect or the level left
[2] = test system: Influenza A virus; test: Inhibition of influenza A virus infection induced apoptosis in MDCK cells infected with influenza virus assessed as decrease in cleaved caspase 3 at 25 to 100 uM incubated for 36 hrs by Western blot analysis; type: functional, organism-based; details: dose 25-100 µM
[3] = test system: Influenza A virus; test: In vivo antiviral activity against influenza A virus infected in BALB/c mouse assessed as reduction in IFN-gamma mRNA level in lung at 25 to 100 mg/kg measured after 6 dpi; type: functional, organism-based; details: dose 25-100 mg/kg
[4] = test system: Influenza A virus; test: Antiviral activity against influenza A virus infected in human A549 cells assessed as inhibition of IRF7 expression by qRT-PCR analysis; type: functional, organism-based
[5] = test system: Influenza A virus; test: Antiviral activity against influenza A virus infected in human A549 cells assessed as inhibition of IFN-beta expression by qRT-PCR analysis; type: functional, organism-based
[6] = test system: Influenza A virus; test: Inhibition of influenza A virus infection induced apoptosis in MDCK cells infected with influenza virus assessed as upregulation of Bcl2 incubated for 36 hrs by Western blot analysis; type: functional, organism-based
[7] = test system: Influenza A virus; test: In vivo antiviral activity against influenza A virus infected in BALB/c mouse assessed as reduction in weight loss at 25 to 100 mg/kg; type: functional, organism-based; details: dose 25-100 mg/kg
[8] = test system: MDCK; test: Inhibition of influenza virus infection induced mitochondrial membrane potential loss in MDCK cells infected with influenza virus assessed as decrease in green fluorescence at 25 to 100 uM by JC-1 probe based confocal microscopy; type: functional, cell-based; details: Influenza A virus, dose 25-100 µM
[9] = test system: Influenza A virus; test: Antiviral activity against influenza A virus infected in A549 cells assessed as decrease in IAV-NP expression pretreated for 48 hrs followed by infected with virus by Western blotting analysis; type: functional, organism-based; details: dose 25-100 µM
[10] = Toxicity in healthy BALB/c mouse assessed as pathological change in heart at 25 to 100 mg/kg administered through gavage for 6 days; type: organism-based; details: in vivo, po, 144 h, dose 25-100 mg/kg, time 6 day
[11] = test system: Influenza A virus; test: Antiviral activity against influenza A virus infected in human A549 cells assessed as inhibition of IFN-gamma expression by qRT-PCR analysis; type: functional, organism-based

SMILES: COc1ccc2c(c1)c(-c1ccccc1)c(NS(C)(=O)=O)n2S(=O)(=O)c1ccc(C)cc1
- Activity [1]: 1.25%
- Activity [2]: Active
- Activity [3]: Active
- Activity [4]: Active
- Activity [5]: Active
- Activity [6]: Active
- Activity [7]: inactive
- inhibition [8]: Active
- Activity [9]: Dose-dependent-effect
- Activity [10]: Non-toxic
- Activity [11]: Active
